Reference: patent publication US9211310B2, “Use of a Chinese medicine composition in preparing medicaments for treating secondary prevention of myocardial infarction” (TASLY PHARMACEUTICAL GROUP CO., LTD, priority 2010, dated 2015)

Tested on: patients after acute myocardial infarction
Test: TCM symptom score, total and single (chest pain, chest tightness, short breath, fatigue, palpitation, spontaneous perspiration, pale complexion), same clinical trial
Assay type: in vivo, human
Set-up: total score of TCM symptom, Mean / total score of TCM symptom, Min / total score of TCM symptom, Max / total score of TCM symptom, Md / change of total score of TCM symptom, Mean / change of total score of TCM symptom, Max / change of total score of TCM symptom, Md: scale not given here
Conditions: FAS
Text: 3508 patients who were in accordance with the diagnostic standards of AMI for 28 days to 2 years and differentiated as Qi deficiency and blood stagnation syndrome by TCM were studied. 0.5 g Chinese medicine composition prepared by the method of EXAMPLE 1 (Coded as QSYQ) was administrated half an hour after meal, 3 times per day.
They included the overall survival time, angina pectoris score, TCM symptom score and life quality score, where angina pectoris score, TCM symptom score and life quality score were evaluated at randomization, in 1st, 3rd, 6th, 9th, 12th month after treatment and 18th month after follow-up.
The analysis method referred to the angina pectoris score.

[1] = 12 months after treatment-baseline

## CC(=O)Oc1ccccc1C(=O)O [Control group, aspirine]
[1]
  change of palpitation 3, number of patients: 8
  change of palpitation 3, percent of patients: (0.47%)
  change of palpitation −1, percent of patients: (6.55%)
  change of palpitation −2, number of patients: 4
  change of palpitation −2, percent of patients: (0.23%)
  change of palpitation −3, number of patients: 0
  change of palpitation −3, percent of patients: (0.00%)
  change of spontaneous perspiration 0, number of patients: 837
  change of spontaneous perspiration 0, percent of patients: (48.98%)
  change of spontaneous perspiration 1, number of patients: 550
  change of spontaneous perspiration 1, percent of patients: (32.18%)
  change of spontaneous perspiration 2, number of patients: 139
  change of spontaneous perspiration 2, percent of patients: (8.13%)
  change of spontaneous perspiration 3, number of patients: 34
  change of spontaneous perspiration 3, percent of patients: (1.99%)
  change of spontaneous perspiration −1, number of patients: 137
  change of spontaneous perspiration −1, percent of patients: (8.02%)
  change of spontaneous perspiration −2, number of patients: 12
  change of spontaneous perspiration −2, percent of patients: (0.70%)
  change of spontaneous perspiration −3, number of patients: 0
  change of spontaneous perspiration −3, percent of patients: (0.00%)
  change of total score of TCM symptom, Max: 18.00
  change of total score of TCM symptom, Md: −5.00
  change of total score of TCM symptom, Mean: −5.39
  change of total score of TCM symptom, Min: −33.00
Baseline
  distribution of total score of TCM symptom: Medium, number of patients: 817
  distribution of total score of TCM symptom: Medium, percentage of patients: (47.83%)
  distribution of total score of TCM symptom: Mild, number of patients: 828
  distribution of total score of TCM symptom: Mild, percentage of patients: (48.48%)
  distribution of total score of TCM symptom: Severe, number of patients: 63
  distribution of total score of TCM symptom: Severe, percentage of patients: (3.69%)
  fatigue score 0, % of patients: (18.42%)
  fatigue score 0, number of patients: 315
  fatigue score 2, % of patients: (60.94%)
  fatigue score 2, number of patients: 1042
  fatigue score 4, % of patients: (16.90%)
  fatigue score 4, number of patients: 289
  fatigue score 6, % of patients: (3.74%)
  fatigue score 6, number of patients: 64
  pale complexion score 0, number of patients: 572
  pale complexion score 0, percent of patients: (33.47%)
  pale complexion score 1, number of patients: 741
  pale complexion score 1, percent of patients: (43.36%)
  pale complexion score 2, number of patients: 325
  pale complexion score 2, percent of patients: (19.02%)
  pale complexion score 3, number of patients: 71
  pale complexion score 3, percent of patients: (4.15%)
  short breath score 0, % of patients: (15.04%)
  short breath score 0, number of patients: 257
  short breath score 3, % of patients: (51.84%)
  short breath score 3, number of patients: 886
  short breath score 6, % of patients: (31.19%)
  short breath score 6, number of patients: 533
  short breath score 9, % of patients: (1.93%)
  short breath score 9, number of patients: 33
Follow-up
  distribution of total score of TCM symptom: Medium, number of patients: 218
  distribution of total score of TCM symptom: Medium, percentage of patients: (15.29%)
  distribution of total score of TCM symptom: Mild, number of patients: 1205
  distribution of total score of TCM symptom: Mild, percentage of patients: (84.50%)
  distribution of total score of TCM symptom: Severe, number of patients: 3
  distribution of total score of TCM symptom: Severe, percentage of patients: (0.21%)
  fatigue score 0, % of patients: (42.76%)
  fatigue score 0, number of patients: 611
  fatigue score 2, % of patients: (53.11%)
  fatigue score 2, number of patients: 759
  fatigue score 4, % of patients: (3.92%)
  fatigue score 4, number of patients: 56
  fatigue score 6, % of patients: (0.21%)
  fatigue score 6, number of patients: 3
  pale complexion score 0, number of patients: 882
  pale complexion score 0, percent of patients: (61.72%)
  pale complexion score 1, number of patients: 465
  pale complexion score 1, percent of patients: (32.54%)
  pale complexion score 2, number of patients: 76
  pale complexion score 2, percent of patients: (5.32%)
  pale complexion score 3, number of patients: 6
  pale complexion score 3, percent of patients: (0.42%)
  palpitation score 0, number of patients: 631
  palpitation score 0, percent of patients: (44.16%)
  palpitation score 2, number of patients: 697
  palpitation score 2, percent of patients: (48.78%)
  palpitation score 4, number of patients: 95
  palpitation score 4, percent of patients: (6.65%)
  palpitation score 6, number of patients: 6
  palpitation score 6, percent of patients: (0.42%)
  short breath score 0, % of patients: (35.62%)
  short breath score 0, number of patients: 509
  short breath score 2, % of patients: (0.07%)
  short breath score 2, number of patients: 1
  short breath score 3, % of patients: (54.51%)
  short breath score 3, number of patients: 779
  short breath score 6, % of patients: (9.59%)
  short breath score 6, number of patients: 137
  short breath score 9, % of patients: (0.21%)
  short breath score 9, number of patients: 3
  spontaneous perspiration score 0, number of patients: 767
  spontaneous perspiration score 0, percent of patients: (53.71%)
  spontaneous perspiration score 1, number of patients: 595
  spontaneous perspiration score 1, percent of patients: (41.67%)
  spontaneous perspiration score 2, number of patients: 62
  spontaneous perspiration score 2, percent of patients: (4.34%)
  spontaneous perspiration score 3, number of patients: 4
  spontaneous perspiration score 3, percent of patients: (0.28%)
  total score of TCM symptom, Max: 32.00
  total score of TCM symptom, Md: 7.00
  total score of TCM symptom, Mean: 7.71
  total score of TCM symptom, Min: 0.00
Follow-up-baseline
  change of fatigue 0, % of patients: (42.67%)
  change of fatigue 0, number of patients: 608
  change of fatigue 2, % of patients: (37.68%)
  change of fatigue 2, number of patients: 537
  change of fatigue 4, % of patients: (11.09%)
  change of fatigue 4, number of patients: 158
  change of fatigue 6, % of patients: (2.11%)
  change of fatigue 6, number of patients: 30
  change of fatigue −2, % of patients: (6.11%)
  change of fatigue −2, number of patients: 87
  change of fatigue −4, % of patients: (0.35%)
  change of fatigue −4, number of patients: 5
  change of pale complexion 0, number of patients: 950
  change of pale complexion 0, percent of patients: (66.95%)
  change of pale complexion 1, number of patients: 430
  change of pale complexion 1, percent of patients: (30.30%)
